Source: patent US20090270394A1, “CYCLYLAMINE DERIVATIVES AS CALCIUM CHANNEL BLOCKERS” (priority 2008, published 2009)

Legend:
T-type calcium channels = settings: cited from earlier work
Human Cav2.2 channels = molecular target: T1, Human Cav2.2 channels (Homo sapiens, UniProt Q00975); test: Fluorescent assay for Cav2.2 channels using potassium depolarization to initiate channel opening; assay type: cell-based; settings: for inhibition at 10 µM: 10 μM compound, read-out: Cav 2.2 Activity % Inh at 10 μM; for inhibition at 30 µM: 30 μM compound, read-out: Cav 2.2 Activity % Inh at 30 μM; for IC50: 30 mM K (block of open and inactivated channels), read-out: Cav 2.2 Activity IC50 at 30 mM K
T1 construct: expressed in transfected cells
Procedure, shortened: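 HEK293 cells stably expressing human Cav2.2 with alpha2-delta and beta subunits plus Kir2.3, dye-loaded, then held 30 min at 25° C. in 4, 12, 25 or 30 mM K+ pre-polarization buffer with compound.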

T1 sequence (Q00975 whole entry): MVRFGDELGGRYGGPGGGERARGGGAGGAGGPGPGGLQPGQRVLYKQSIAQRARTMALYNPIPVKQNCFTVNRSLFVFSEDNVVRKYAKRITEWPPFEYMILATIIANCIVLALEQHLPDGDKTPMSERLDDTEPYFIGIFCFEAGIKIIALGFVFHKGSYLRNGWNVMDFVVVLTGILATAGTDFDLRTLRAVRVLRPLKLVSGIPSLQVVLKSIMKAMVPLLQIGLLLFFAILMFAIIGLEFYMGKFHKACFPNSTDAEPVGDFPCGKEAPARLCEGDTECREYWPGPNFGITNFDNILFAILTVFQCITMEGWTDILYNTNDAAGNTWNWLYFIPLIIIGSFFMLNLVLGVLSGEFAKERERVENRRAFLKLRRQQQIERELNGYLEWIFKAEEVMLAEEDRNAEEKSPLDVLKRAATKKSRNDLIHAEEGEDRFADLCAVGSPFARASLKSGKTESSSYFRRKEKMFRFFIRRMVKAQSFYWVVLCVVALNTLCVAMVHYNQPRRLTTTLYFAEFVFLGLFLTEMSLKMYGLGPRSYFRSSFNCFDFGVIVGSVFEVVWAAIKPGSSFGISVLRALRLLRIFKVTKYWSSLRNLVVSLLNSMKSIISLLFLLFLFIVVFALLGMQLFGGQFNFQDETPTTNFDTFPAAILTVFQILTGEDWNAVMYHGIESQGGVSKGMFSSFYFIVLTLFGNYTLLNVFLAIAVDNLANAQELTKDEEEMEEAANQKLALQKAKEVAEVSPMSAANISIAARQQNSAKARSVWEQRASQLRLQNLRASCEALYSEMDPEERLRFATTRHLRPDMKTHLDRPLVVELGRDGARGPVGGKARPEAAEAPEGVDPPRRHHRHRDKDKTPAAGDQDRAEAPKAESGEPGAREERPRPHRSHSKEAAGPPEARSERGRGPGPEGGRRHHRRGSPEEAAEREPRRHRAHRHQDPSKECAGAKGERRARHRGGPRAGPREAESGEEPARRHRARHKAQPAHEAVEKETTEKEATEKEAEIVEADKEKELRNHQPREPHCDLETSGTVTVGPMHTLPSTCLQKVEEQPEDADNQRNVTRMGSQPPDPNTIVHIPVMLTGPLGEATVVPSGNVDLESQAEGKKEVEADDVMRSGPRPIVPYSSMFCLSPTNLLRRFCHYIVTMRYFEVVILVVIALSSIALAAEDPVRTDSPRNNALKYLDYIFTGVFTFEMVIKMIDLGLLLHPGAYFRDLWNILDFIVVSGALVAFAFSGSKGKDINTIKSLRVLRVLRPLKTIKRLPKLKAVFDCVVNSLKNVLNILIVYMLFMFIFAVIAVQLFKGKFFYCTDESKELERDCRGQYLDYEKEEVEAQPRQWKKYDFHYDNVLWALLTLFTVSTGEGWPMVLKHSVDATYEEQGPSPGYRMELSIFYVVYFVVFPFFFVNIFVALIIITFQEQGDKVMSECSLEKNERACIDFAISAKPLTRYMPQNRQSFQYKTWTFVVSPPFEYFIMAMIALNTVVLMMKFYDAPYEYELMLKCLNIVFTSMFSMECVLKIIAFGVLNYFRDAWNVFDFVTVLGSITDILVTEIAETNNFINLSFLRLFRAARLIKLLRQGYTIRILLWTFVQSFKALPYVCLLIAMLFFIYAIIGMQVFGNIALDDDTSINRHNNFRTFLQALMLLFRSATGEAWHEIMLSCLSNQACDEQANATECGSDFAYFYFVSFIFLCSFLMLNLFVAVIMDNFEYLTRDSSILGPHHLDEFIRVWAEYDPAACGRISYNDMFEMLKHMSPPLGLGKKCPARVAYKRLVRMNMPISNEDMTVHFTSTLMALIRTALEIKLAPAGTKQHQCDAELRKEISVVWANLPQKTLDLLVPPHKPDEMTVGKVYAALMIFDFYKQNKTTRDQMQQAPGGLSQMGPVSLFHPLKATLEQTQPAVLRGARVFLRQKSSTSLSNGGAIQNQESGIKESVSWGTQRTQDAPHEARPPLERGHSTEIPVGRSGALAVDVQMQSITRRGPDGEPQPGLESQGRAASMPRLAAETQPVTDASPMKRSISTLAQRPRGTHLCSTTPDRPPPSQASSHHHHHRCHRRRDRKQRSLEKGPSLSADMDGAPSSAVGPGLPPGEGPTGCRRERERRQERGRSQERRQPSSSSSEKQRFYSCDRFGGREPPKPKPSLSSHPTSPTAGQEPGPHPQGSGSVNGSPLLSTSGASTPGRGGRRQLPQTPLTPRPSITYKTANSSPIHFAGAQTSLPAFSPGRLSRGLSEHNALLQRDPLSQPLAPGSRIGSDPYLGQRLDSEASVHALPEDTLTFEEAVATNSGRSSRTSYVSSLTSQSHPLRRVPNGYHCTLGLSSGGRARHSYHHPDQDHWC
T1 sequence (P54289 25-1103 partner): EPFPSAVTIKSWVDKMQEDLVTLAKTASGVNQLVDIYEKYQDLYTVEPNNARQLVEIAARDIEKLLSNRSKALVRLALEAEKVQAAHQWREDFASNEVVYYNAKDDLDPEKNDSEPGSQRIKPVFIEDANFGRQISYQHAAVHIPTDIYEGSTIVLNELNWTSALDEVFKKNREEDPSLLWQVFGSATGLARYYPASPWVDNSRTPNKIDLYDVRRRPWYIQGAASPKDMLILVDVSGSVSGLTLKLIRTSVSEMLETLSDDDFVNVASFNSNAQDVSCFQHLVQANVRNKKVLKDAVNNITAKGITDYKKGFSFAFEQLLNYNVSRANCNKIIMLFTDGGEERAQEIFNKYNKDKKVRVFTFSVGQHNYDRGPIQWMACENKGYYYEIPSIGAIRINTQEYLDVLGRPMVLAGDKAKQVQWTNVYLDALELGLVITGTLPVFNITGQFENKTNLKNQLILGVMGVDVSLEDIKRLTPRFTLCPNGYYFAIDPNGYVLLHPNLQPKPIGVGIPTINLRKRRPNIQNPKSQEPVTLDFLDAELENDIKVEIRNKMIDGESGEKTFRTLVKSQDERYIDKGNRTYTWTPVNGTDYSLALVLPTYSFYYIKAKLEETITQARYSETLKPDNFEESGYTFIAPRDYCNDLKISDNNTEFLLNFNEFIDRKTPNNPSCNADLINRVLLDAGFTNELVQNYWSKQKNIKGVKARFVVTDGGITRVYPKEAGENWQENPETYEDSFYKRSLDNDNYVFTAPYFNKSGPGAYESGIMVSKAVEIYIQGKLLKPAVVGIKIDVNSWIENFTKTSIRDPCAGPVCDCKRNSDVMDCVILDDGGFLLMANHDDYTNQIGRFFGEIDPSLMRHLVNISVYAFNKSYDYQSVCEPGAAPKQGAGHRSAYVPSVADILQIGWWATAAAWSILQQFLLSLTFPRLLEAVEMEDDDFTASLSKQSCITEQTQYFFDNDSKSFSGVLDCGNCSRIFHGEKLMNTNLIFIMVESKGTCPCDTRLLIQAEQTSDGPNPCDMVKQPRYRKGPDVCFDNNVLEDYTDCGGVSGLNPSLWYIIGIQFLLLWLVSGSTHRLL
T1 sequence (P54284 whole entry partner): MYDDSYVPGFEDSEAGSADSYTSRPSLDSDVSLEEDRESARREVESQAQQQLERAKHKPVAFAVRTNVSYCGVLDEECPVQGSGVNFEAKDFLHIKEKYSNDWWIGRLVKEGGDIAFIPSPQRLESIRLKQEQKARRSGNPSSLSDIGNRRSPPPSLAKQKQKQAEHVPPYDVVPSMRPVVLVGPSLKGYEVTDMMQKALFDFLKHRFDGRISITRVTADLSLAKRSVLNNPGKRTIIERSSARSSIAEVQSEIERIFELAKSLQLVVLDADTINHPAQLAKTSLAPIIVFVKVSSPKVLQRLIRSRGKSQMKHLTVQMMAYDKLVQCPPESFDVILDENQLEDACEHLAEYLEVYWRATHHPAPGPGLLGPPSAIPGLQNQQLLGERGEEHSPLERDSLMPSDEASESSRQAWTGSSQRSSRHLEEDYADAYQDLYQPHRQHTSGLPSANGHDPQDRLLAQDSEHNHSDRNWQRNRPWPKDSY

Compound	fold selective for T-type over L-type channels (T-type calcium channels)	inhibition at 10 µM (Human Cav2.2 channels) [%]	inhibition at 30 µM (Human Cav2.2 channels) [%]	IC50 (Human Cav2.2 channels) [nM]
COCC(=O)O[C@]1(CCN(C)CCCc2nc3ccccc3[nH]2)CCc2cc(F)ccc2[C@@H]1C(C)C [Mibefradil]	10-30 fold	–	–	–
N#CCc1cc(CC#N)cc(C(=O)NC2(C(=O)NCc3cccc(C(F)(F)F)c3)CCCCC2)c1 [Compound 61, 3,5-bis(cyanomethyl)-N-(1-(3-(trifluoromethyl)benzylcarbamoyl)cyclohexyl)benzamide]	–	18.7	56.4	–
COc1c(C(C)(C)C)cc(C(=O)NC2(C(=O)NCc3ccccc3)CCCCC2)cc1C(C)(C)C [Compound 32, N-(1-(benzylcarbamoyl)cyclohexyl)-3,5-di-tert-butyl-4-methoxybenzamide]	–	88.8	98	5.6
CC(C)(C)c1cc(C(=O)NC2(C(=O)NCc3ccc(NS(C)(=O)=O)cc3)CC2)cc(C(C)(C)C)c1O [Compound 117, 3,5-di-tert-butyl-4-hydroxy-N-(1-(4-(methylsulfonamido)benzylcarbamoyl)cyclopropyl)benzamide]	–	74.2	101	1090
CC(C)(C)c1cc(C(=O)NC2(C(=O)NCc3cccc(C(F)(F)F)c3)Cc3ccccc3C2)cc(C(C)(C)C)n1 [Compound 54, 2,6-di-tert-butyl-N-(2-(3-(trifluoromethyl)benzylcarbamoyl)-2,3-dihydro-1H-inden-2-yl)isonicotinamide]	–	46.2	68.4	–
COc1ccc(CNC(=O)C2(NC(=O)c3cc(C(C)(C)C)nc(C(C)(C)C)c3)CCCC2)cc1 [Compound 89, 2,6-di-tert-butyl-N-(1-(4-methoxybenzylcarbamoyl)cyclopentyl)isonicotinamide]	–	90.8	100	54.6
CN1CCN(C(=O)C2(NC(=O)c3cc(C(C)(C)C)nc(C(C)(C)C)c3)CCCC2)CC1 [Compound 93, 2,6-di-tert-butyl-N-(1-(4-methylpiperazine-1-carbonyl)cyclopentyl)isonicotinamide]	–	83.9	85.5	856
CC(C)(C)c1cc(C(=O)NC2(C(=O)NCc3nccs3)CCCCC2)cc(C(C)(C)C)c1O [Compound 13, 3,5-di-tert-butyl-4-hydroxy-N-(1-(thiazol-2-ylmethylcarbamoyl)cyclohexyl)benzamide]	–	96.9	99.8	34.1
CNC(=O)C1(NC(=O)c2cc(C(C)(C)C)cc(C(C)(C)C)c2)CCCCC1 [Compound 35, 3,5-di-tert-butyl-N-(1-(methylcarbamoyl)cyclohexyl)benzamide]	–	92.5	98.6	1260
CC(C)(C)c1cc(CNC2(C(=O)NCc3cccc(C(F)(F)F)c3)CCCCC2)cc(C(C)(C)C)c1 [Compound 60, 1-(3,5-di-tert-butylbenzylamino)-N-(3-(trifluoromethyl)benzyl)cyclohexanecarboxamide]	–	74.8	85.8	–
CC(C)(C#N)c1ccc(C(=O)NC2(C(=O)NCc3cccc(C(F)(F)F)c3)Cc3ccccc3C2)cc1 [Compound 55, 2-(4-(2-cyanopropan-2-yl)benzamido)-N-(3-(trifluoromethyl)benzyl)-2,3-dihydro-1H-indene-2-carboxamide]	–	89	100	–
COc1ccc(CNC(=O)C2(NC(=O)Cc3cc(C(C)(C)C)c(OC)c(C(C)(C)C)c3)CCCCC2)cc1 [Compound 18, 1-(2-(3,5-di-tert-butyl-4-methoxyphenyl)acetamido)-N-(4-methoxybenzyl)cyclohexanecarboxamide]	–	40.7	34.5	–
COc1c(C(C)(C)C)cc(C(=O)NC2(C(=O)NCc3cccc(C(F)(F)F)c3)CCCCC2)cc1C(C)(C)C [Compound 33, 3,5-di-tert-butyl-4-methoxy-N-(1-(3-(trifluoromethyl)benzylcarbamoyl)cyclohexyl)benzamide]	–	81.4	90.5	37.6
CC(C)(C#N)c1cccc(C(=O)NC2(C(=O)NCc3cccc(C(F)(F)F)c3)CCCCC2)c1 [Compound 124, 3-(2-cyanopropan-2-yl)-N-(1-(3-(trifluoromethyl)benzylcarbamoyl)cyclohexyl)benzamide]	–	84.2	74	810
CC(C)(C)c1cc(C(=O)NC2(C(=O)NCc3ccccc3)CCCC2)cc(C(C)(C)C)n1 [Compound 95, N-(1-(benzylcarbamoyl)cyclopentyl)-2,6-di-tert-butylisonicotinamide]	–	94.6	101	132
COc1c(C(C)(C)C)cc(CC(=O)NC2(C(=O)NCc3ccccc3)CCCCC2)cc1C(C)(C)C [Compound 17, N-benzyl-1-(2-(3,5-di-tert-butyl-4-methoxyphenyl)acetamido)cyclohexanecarboxamide]	–	48.2	90.6	–
CC(C)(C)NC(=O)C(C)(C)c1ccc(C(=O)NC2(C(=O)NCc3cccc(C(F)(F)F)c3)CCCCC2)cc1 [Compound 126, 4-(1-(tert-butylamino)-2-methyl-1-oxopropan-2-yl)-N-(1-(3-(trifluoromethyl)benzylcarbamoyl)cyclohexyl)benzamide]	–	102	104	273
COc1ccc(C(=O)NC2(C(=O)NCc3cc(C(C)(C)C)c(OC)c(C(C)(C)C)c3)CCCCC2)cc1 [Compound 74, N-(1-(3,5-di-tert-butyl-4-methoxybenzylcarbamoyl)cyclohexyl)-4-methoxybenzamide]	–	98.9	106	55.8
CC(C)(C(N)=O)c1cccc(C(=O)NC2(C(=O)NCc3cccc(C(F)(F)F)c3)CCCCC2)c1 [Compound 121, 3-(1-amino-2-methyl-1-oxopropan-2-yl)-N-(1-(3-(trifluoromethyl)benzylcarbamoyl)cyclohexyl)benzamide]	–	18.6	70.8	–
COc1c(C(C)(C)C)cc(C(=O)NC2(C(=O)NCc3cc(C)n(C)n3)CCCCC2)cc1C(C)(C)C [Compound 85, 3,5-di-tert-butyl-N-(1-((1,5-dimethyl-1H-pyrazol-3-yl)methylcarbamoyl)cyclohexyl)-4-methoxybenzamide]	–	87.7	93.2	26.7
CC(C)(C)NC(=O)C(C)(C)c1ccc(C(=O)NC2(C(=O)NCc3ccccc3)CCCCC2)cc1 [Compound 125, N-(1-(benzylcarbamoyl)cyclohexyl)-4-(1-(tert-butylamino)-2-methyl-1-oxopropan-2-yl)benzamide]	–	89.6	85.8	739
CC(C)(C)OC(=O)N1CCC(NC(=O)c2cc(C(C)(C)C)nc(C(C)(C)C)c2)(C(=O)NCc2ccccc2)CC1 [Compound 59, tert-butyl 4-(benzylcarbamoyl)-4-(2,6-di-tert-butylisonicotinamido)piperidine-1-carboxylate]	–	50.2	62.5	–
